Values joined by “and” are separate entries in the source; they are usually repeats but may differ in a detail not shown here. Identical values can stand only once. Like-named read-outs stand apart in the source and are kept apart here.
How the values were obtained:
hSGLT1 = hSGLT1 (Homo sapiens (Human), UniProt P13866); assay: hSGLT1 inhibition (Table 1); assay type: cell-based; details: individual runs (Run No.)
human SGLT2 = human SGLT2 (Homo sapiens (Human), UniProt P31639); assay: SGLT2 functional assay: inhibition of AMG uptake in CHO-FlpIn cells stably expressing human SGLT2; assay type: cell-based; details: read-out: hSGLT2 IC50
human SGLT2, sequence (P31639 whole entry): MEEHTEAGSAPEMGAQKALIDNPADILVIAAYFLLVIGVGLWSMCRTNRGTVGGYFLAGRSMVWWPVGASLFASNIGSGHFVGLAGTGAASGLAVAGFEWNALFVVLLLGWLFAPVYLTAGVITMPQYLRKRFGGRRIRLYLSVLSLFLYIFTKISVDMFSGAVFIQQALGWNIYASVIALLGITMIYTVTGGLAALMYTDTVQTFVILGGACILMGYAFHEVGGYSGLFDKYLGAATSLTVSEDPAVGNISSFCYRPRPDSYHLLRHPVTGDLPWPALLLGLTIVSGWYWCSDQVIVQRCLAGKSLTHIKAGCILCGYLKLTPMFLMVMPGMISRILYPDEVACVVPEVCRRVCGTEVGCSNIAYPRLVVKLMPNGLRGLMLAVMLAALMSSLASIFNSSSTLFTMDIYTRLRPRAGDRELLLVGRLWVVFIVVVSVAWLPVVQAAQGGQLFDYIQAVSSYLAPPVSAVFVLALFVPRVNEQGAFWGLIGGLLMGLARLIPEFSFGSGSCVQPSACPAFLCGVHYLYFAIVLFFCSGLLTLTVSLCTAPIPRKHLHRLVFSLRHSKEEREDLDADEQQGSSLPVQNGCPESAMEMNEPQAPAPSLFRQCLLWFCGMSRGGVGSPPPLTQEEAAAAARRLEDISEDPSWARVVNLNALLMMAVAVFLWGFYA
Text: The SGLT2 functional assay was designed to detect the inhibition of methyl-alpha-D glucopyranoside (AMG—a non-metabolizable form of glucose) uptake via the SGLT2 transporter. The SGLT2 transporter recovers glucose from the proximal tubules of the kidney; its inhibition results in sugar wasted in the urine. The positive control compound, Phlorizin, is a known inhibitor of glucose uptake for SGLT2 and was used for comparing the high percent effect of SGLT2 inhibition of the test compounds.
CHO-FlpIn (Invitrogen, Carlsbad, Calif.) cells stably expressing human SGLT2 (pcDNA5/FRT) were plated in Iso-TC 96 well plates (Perkin Elmer, Waltham, Mass.) at a density of 100,000 cells/well in 100 microL of growth media (1:1 F-12/DMEM media (Gibco, Carlsbad, Calif.), 10% FBS (Sigma, St. Louis Mo.), 1× Pen/Strep (Gibco, Carlsbad, Calif.), 600 microg/mL Hygromycin (Invitrogen, Carlsbad, Calif.)). Prior to treating with test compound, confluent cells were serum starved for 2 hours at 37° C. in 1:1 F-12/DMEM media, replacing with fresh F-12/DMEM media after 1 hour. […] After incubation, cells were washed twice with ice cold wash buffer (uptake buffer containing 200 microM Phlorizin (Sigma), air dried and lysed in 30 microL of 200 mM NaOH and 1% SDS buffer on an orbital shaker. Microscint 40 (Perkin Elmer, Waltham, Mass.) was added to the lysed cells (giving a final volume of 200 microL) and mixed by orbital shaking for 30 minutes. Plates were stored in the dark overnight and quantitated in the 1540 Microbeta Trilux (Wallac, Waltham, Mass.) using a normalized protocol for ^14C detection. The percent effect of test compounds to inhibit AMG uptake was calculated using the following calculation: [% Effect=((ZPE−T)/(ZPE−HPE))×100%] where “ZPE” is the corrected counts per minute (CCPM) in control wells containing 0.5% DMSO, “T” is the CCPM in wells containing test compound at various concentrations of the standard curve, and “HPE” is the high percent effect referring to the CCPM in control wells containing 10 microM Phlorizin. The IC50 values were calculated using a dose response equation and are summarized for the compounds tested in Table 1. **For test compound 1, cells were pre-incubated with test compound 1 for 15 minutes prior to the addition of the appropriate amount of AMG (40 nCi AMG [U-^14C] (Perkin Elmer, Waltham, Mass.) in unlabelled AMG (Aldrich, St. Louis, Mo.)) per well yielding a final concentration of 200 microM AMG. […]

[1] = final concentration of 11.33 microM AMG, individual runs (Run No.)

hSGLT1, sequence (P13866 whole entry): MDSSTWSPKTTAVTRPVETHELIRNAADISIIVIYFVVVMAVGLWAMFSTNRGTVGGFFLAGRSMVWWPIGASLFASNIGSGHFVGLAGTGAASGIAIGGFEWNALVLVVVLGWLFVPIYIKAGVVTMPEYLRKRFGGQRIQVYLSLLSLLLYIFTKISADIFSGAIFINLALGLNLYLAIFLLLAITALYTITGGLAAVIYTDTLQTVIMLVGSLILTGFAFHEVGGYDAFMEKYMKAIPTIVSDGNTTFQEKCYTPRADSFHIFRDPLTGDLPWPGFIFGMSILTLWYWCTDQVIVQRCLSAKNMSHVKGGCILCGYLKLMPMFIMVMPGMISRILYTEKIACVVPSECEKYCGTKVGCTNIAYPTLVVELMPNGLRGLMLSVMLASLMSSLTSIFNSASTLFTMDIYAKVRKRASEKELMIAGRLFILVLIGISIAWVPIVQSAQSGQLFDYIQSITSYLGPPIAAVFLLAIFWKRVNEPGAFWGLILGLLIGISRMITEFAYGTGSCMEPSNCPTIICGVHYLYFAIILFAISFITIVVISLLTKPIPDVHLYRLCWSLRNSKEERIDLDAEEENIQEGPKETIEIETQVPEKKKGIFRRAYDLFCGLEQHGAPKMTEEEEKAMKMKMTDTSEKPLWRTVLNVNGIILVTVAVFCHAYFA

IC50 (hSGLT1) | IC50 (human SGLT2; [1]) | IC50 (human SGLT2; ** final concentration of 200 microM AMG) [nM] | Compound | melting point [°C]
1970 nM and 1890 nM and 2000 nM | 4 nM (2×) and 3 nM |  | CCOc1ccc(Cc2cc([C@]34OC[C@](CF)(O3)[C@@H](O)[C@H](O)[C@H]4O)ccc2Cl)cc1 [Example 8, (1S,2S,3S,4R,5S)-5-[4-Chloro-3-(4-ethoxy-benzyl)-phenyl]-1-fluoromethyl-6,8-dioxa-bicyclo[3.2.1]octane-2,3,4-triol] | 
3360 nM | 45.9 nM |  | CCOC(=O)OC[C@@]12CO[C@@](c3ccc(Cl)c(Cc4ccc(OCC)cc4)c3)(O1)[C@H](O)[C@@H](O)[C@@H]2O [Example 4, Carbonic acid (1R,2S,3S,4R,5S)-5-[4-chloro-3-(4-ethoxy-benzyl)-phenyl]-2,3,4-trihydroxy-6,8-dioxa-bicyclo[3.2.1]oct-1-ylmethyl ester ethyl ester] | 
3470 nM and 5830 nM |  |  | CCOc1ccc(Cc2cc([C@]34OC[C@](COC(C)=O)(O3)[C@@H](O)[C@H](O)[C@H]4O)ccc2Cl)cc1 [Example 3, Acetic acid (1R,2S,3S,4R,5S)-5-[4-chloro-3-(4-ethoxy-benzyl)-phenyl]-2,3,4-trihydoxy-6,8-dioxa-bicyclo[3.2.1]oct-1-ylmethyl ester] | 
 |  | 2.6 | OC[C@@]12CO[C@@](c3ccc(Cl)c(Cc4ccc(O)cc4)c3)(O1)[C@H](O)[C@@H](O)[C@@H]2O [Example 1, (1S,2S,3S,4R,5S)-5-[4-chloro-3-(4-hydroxy-benzyl)-phenyl]-1-hydroxymethyl-6,8-dioxa-bicyclo[3.2.1]octane-2,3,4-triol] | 

Compound | IC50 (hSGLT1) | IC50 (human SGLT2; [1]) | IC50 (human SGLT2; ** final concentration of 200 microM AMG) [nM] | melting point [°C]
CCOc1ccc(Cc2cc([C@]34OC[C@](COC(C)=O)(O3)[C@@H](OC(C)=O)[C@H](OC(C)=O)[C@H]4OC(C)=O)ccc2Cl)cc1 [Example 2, Acetic acid (1R,2S,3S,4R,5S)-3,4-diacetoxy-1-acetoxymethyl-5-[4-chloro-3-(4-ethoxy-benzyl)-phenyl]-6,8-dioxa-bicyclo[3.2.1]oct-2-yl ester] | 10000 nM | 1090 nM and 1770 nM |  | 134.3
